What is called pIC50 is the negative decadic logarithm of the IC50, by convention in mol/L. A low value points to a high IC50.

pIC50: −log10 of the molar value.

The results in this text go back to ChEMBL document CHEMBL1641386, “Lagunamides A and B: cytotoxic and antimalarial cyclodepsipeptides from the marine cyanobacterium Lyngbya majuscula” (J Nat Prod, 2010).

In one assay the test system is P388. The experiment in a line: Cytotoxicity against mouse P388 cells after 72 hrs by MTT assay. Format: functional, cell-based. The conditions noted are these: P388, 72 h. (Tetrazolium dyes change colour on reduction, which living cells bring about.)
The next assay has as its system Pseudomonas aeruginosa. The assay is described as follows: Anti-Swarming activity against Pseudomonas aeruginosa PA01 at 100 ppm after 72 hrs. Type of assay: functional.
For another assay, the system named is Plasmodium falciparum. The assay is described as follows: Antimalarial activity against drug-sensitive Plasmodium falciparum NF54 infected in human erythrocytes after 48 hrs by Liquid scintillation counter. Format: functional, organism-based. The conditions noted are these: NF54, 48 h.

Turning to `CC[C@@H](C)[C@@H]1NC(=O)CN(C)C(=O)[C@@H](Cc2ccccc2)N(C)C(=O)[C@H](C)NC(=O)[C@@H]([C@@H](C)CC)OC(=O)/C(C)=C/C[C@H](O)[C@H](C)[C@H]([C@@H](C)CC)OC(=O)[C@H](C)N(C)C1=O` [LAGUNAMIDE A], the pIC50 is 8.19 with P388 and 6.72 in the assay on Plasmodium falciparum. Further, the Activity in the assay on Pseudomonas aeruginosa is reported as 62%.

With `C/C=C(\C)[C@@H]1OC(=O)[C@H](C)N(C)C(=O)[C@H]([C@H](C)CC)NC(=O)CN(C)C(=O)[C@@H](Cc2ccccc2)N(C)C(=O)[C@H](C)NC(=O)[C@@H]([C@@H](C)CC)OC(=O)/C(C)=C/C[C@H](O)[C@@H]1C` [LAGUNAMIDE B], the pIC50 with P388 was 7.69; in the assay on Plasmodium falciparum, 6.04. This compound also had an Activity in the assay with Pseudomonas aeruginosa of 56%.
